Results: patent US20100267561A1, “HERBICIDAL PYRIDAZINONE DERIVATIVES” (priority 2007, published 2010)

Columns and labels:
Test in all cases: Test B pre-/postemergence plant response
Assay type in all cases: in vivo
[1] = test system: Italian ryegrass (Lolium multiflorum)
Summary of the method: (§1)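 Preemergence and postemergence (plants 2-18 cm, 1- to 4-leaf stage) applications used test chemicals in a non-phytotoxic solvent with surfactant. Plants were held in a greenhouse 13 to 15 days, then rated visually against controls on a 0-100 scale (0 no effect, 100 complete control).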

[2] = test system: bermudagrass (Cynodon dactylon); conditions: for Bermudagrass plant response rating: 8 g ai/ha
Summary of the method: as §1

[3] = test system: cocklebur (Xanthium strumarium); conditions: for Cocklebur plant response rating: 8 g ai/ha
Summary of the method: as §1

[4] = test system: common (oilseed) sunflower (Helianthus annuus); conditions: Preemergence; for Sunflower plant response rating: scale 0 to 100
Summary of the method: as §1

[5] = test system: common ragweed (Ambrosia elation)
Summary of the method: as §1

[6] = test system: goosegrass (Eleusine indica)
Summary of the method: as §1

[7] = test system: johnsongrass (Sorghum halepense)
Summary of the method: as §1

kochia (Kochia scoparia) = test system: kochia (Kochia scoparia)
Summary of the method: as §1

[8] = test system: lambsquarters (Chenopodium album)
Summary of the method: as §1

[9] = test system: morningglory (Ipomoea coccinea)
Summary of the method: as §1

soybean (Glycine max) = test system: soybean (Glycine max)
Summary of the method: as §1

[10] = test system: surinam grass (Brachiaria decumbens)
Summary of the method: as §1

[11] = test system: velvetleaf (Abutilon theophrasti)
Summary of the method: as §1

[12] = test system: wheat (Triticum aestivum)
Summary of the method: as §1

[13] = 8 g ai/ha, postemergence, 0-100 scale
[14] = Postemergence, 16 g ai/ha, scale 0 to 100
[15] = Postemergence, 31 g ai/ha, scale 0 to 100
[16] = Postemergence, 62 g ai/ha, scale 0 to 100, 0 no effect, 100 complete control
[17] = Preemergence, 31 g ai/ha, scale 0 to 100 (0 no effect, 100 complete control)
[18] = Preemergence, 62 g ai/ha, 0 to 100 scale, 0 no effect, 100 complete control
[19] = Preemergence, 8 g ai/ha, scale 0 to 100
[20] = Preemergence, 16 g ai/ha, scale 0 to 100
[21] = Preemergence, 16 g ai/ha, scale 0 to 100 (0 no effect, 100 complete control)

Cc1cc(-c2ccc(Cl)cc2)nn1-c1c(OC(=O)OCC(C)C)cnn(C)c1=O [Compound 57]
Ryegrass, Italian plant response rating [1, 13]: 80
Plant response rating, Ryegrass, Italian [1, 14]: 95
Plant response rating, Ryegrass, Italian [1, 15]: 95
Plant response rating, Ryegrass, Italian [1, 16]: 95
Plant response rating, Ryegrass, Italian [1, 17]: 95
Plant response rating, Ryegrass, Italian [1, 18]: 100
Ryegrass, Italian plant response rating [1, 19]: 0
Ryegrass, Italian plant response rating [1, 20]: 70
Bermudagrass plant response rating ([2]; postemergence, 0-100 scale): 65
Plant response rating, Bermudagrass [2, 14]: 85
Plant response rating, Bermudagrass [2, 15]: 98
Plant response rating, Bermudagrass [2, 16]: 100
Bermudagrass plant response rating ([2]; Preemergence, scale 0 to 100 (0 no effect, 100 complete control)): 100
Plant response rating, Bermudagrass [2, 21]: 100
Plant response rating, Bermudagrass [2, 17]: 100
Plant response rating, Bermudagrass [2, 18]: 100
Cocklebur plant response rating ([3]; postemergence, 0-100 scale): 0
Plant response rating, Cocklebur [3, 14]: 0
Plant response rating, Cocklebur [3, 15]: 0
Plant response rating, Cocklebur [3, 16]: 0
Plant response rating, Cocklebur [3, 21]: 0
Plant response rating, Cocklebur [3, 17]: 0
Plant response rating, Cocklebur [3, 18]: 0
Cocklebur plant response rating ([3]; Preemergence, scale 0 to 100): 0
Plant response rating, Sunflower ([4]; 31 g ai/ha, scale 0 to 100 (0 no effect, 100 complete control)): 0
Plant response rating, Sunflower ([4]; 62 g ai/ha, 0 to 100 scale, 0 no effect, 100 complete control): 0
Sunflower plant response rating ([4]; 8 g ai/ha): 0
Sunflower plant response rating ([4]; 16 g ai/ha): 0
Ragweed plant response rating [5, 13]: 0
Plant response rating, Ragweed [5, 14]: 0
Plant response rating, Ragweed [5, 15]: 0
Plant response rating, Ragweed [5, 16]: 0
Plant response rating, Ragweed [5, 17]: 0
Plant response rating, Ragweed [5, 18]: 0
Ragweed plant response rating [5, 19]: 0
Ragweed plant response rating [5, 20]: 0
Goosegrass plant response rating [6, 13]: 65
Plant response rating, Goosegrass [6, 14]: 80
Plant response rating, Goosegrass [6, 15]: 85
Plant response rating, Goosegrass [6, 16]: 90
Plant response rating, Goosegrass [6, 17]: 98
Plant response rating, Goosegrass [6, 18]: 100
Goosegrass plant response rating [6, 19]: 0
Goosegrass plant response rating [6, 20]: 0
Johnsongrass plant response rating [7, 13]: 15
Plant response rating, Johnsongrass [7, 14]: 65
Plant response rating, Johnsongrass [7, 15]: 90
Plant response rating, Johnsongrass [7, 16]: 100
Plant response rating, Johnsongrass [7, 17]: 90
Plant response rating, Johnsongrass [7, 18]: 100
Johnsongrass plant response rating [7, 19]: 65
Johnsongrass plant response rating [7, 20]: 90
Kochia plant response rating (kochia (Kochia scoparia); [13]): 0
Plant response rating, Kochia (kochia (Kochia scoparia); [14]): 0
Plant response rating, Kochia (kochia (Kochia scoparia); [15]): 0
Plant response rating, Kochia (kochia (Kochia scoparia); [16]): 0
Plant response rating, Kochia (kochia (Kochia scoparia); [17]): 0
Plant response rating, Kochia (kochia (Kochia scoparia); [18]): 0
Kochia plant response rating (kochia (Kochia scoparia); [19]): 0
Kochia plant response rating (kochia (Kochia scoparia); [20]): 0
Lambsquarters plant response rating [8, 13]: 0
Plant response rating, Lambsquarters [8, 14]: 0
Plant response rating, Lambsquarters [8, 15]: 0
Plant response rating, Lambsquarters [8, 16]: 0
Plant response rating, Lambsquarters [8, 17]: 20
Plant response rating, Lambsquarters [8, 18]: 65
Lambsquarters plant response rating [8, 19]: 0
Lambsquarters plant response rating [8, 20]: 0
Morningglory plant response rating [9, 13]: 0
Plant response rating, Morningglory [9, 14]: 0
Plant response rating, Morningglory [9, 15]: 0
Plant response rating, Morningglory [9, 16]: 0
Plant response rating, Morningglory [9, 17]: 0
Plant response rating, Morningglory [9, 18]: 0
Morningglory plant response rating [9, 19]: 0
Morningglory plant response rating [9, 20]: 0
Soybean plant response rating (soybean (Glycine max); [13]): 0
Plant response rating, Soybean (soybean (Glycine max); [14]): 0
Plant response rating, Soybean (soybean (Glycine max); [15]): 0
Plant response rating, Soybean (soybean (Glycine max); [16]): 0
Plant response rating, Soybean (soybean (Glycine max); [17]): 0
Plant response rating, Soybean (soybean (Glycine max); [18]): 0
Soybean plant response rating (soybean (Glycine max); [19]): 0
Soybean plant response rating (soybean (Glycine max); [20]): 0
Surinam Grass plant response rating [10, 13]: 65
Plant response rating, Surinam Grass [10, 14]: 75
Plant response rating, Surinam Grass [10, 15]: 100
Plant response rating, Surinam Grass [10, 16]: 100
Plant response rating, Surinam Grass [10, 17]: 100
Plant response rating, Surinam Grass [10, 18]: 100
Surinam Grass plant response rating [10, 19]: 60
Surinam Grass plant response rating [10, 20]: 98
Velvetleaf plant response rating [11, 13]: 0
Plant response rating, Velvetleaf [11, 14]: 0
Plant response rating, Velvetleaf [11, 15]: 0
Plant response rating, Velvetleaf [11, 16]: 0
Plant response rating, Velvetleaf [11, 17]: 0
Plant response rating, Velvetleaf [11, 18]: 0
Velvetleaf plant response rating [11, 19]: 0
Velvetleaf plant response rating [11, 20]: 0
Wheat plant response rating [12, 13]: 30
Plant response rating, Wheat [12, 14]: 45
Plant response rating, Wheat [12, 15]: 90
Plant response rating, Wheat [12, 16]: 90
Plant response rating, Wheat [12, 17]: 40
Plant response rating, Wheat [12, 18]: 50
Wheat plant response rating [12, 20]: 15
